This note sets out measurements from patent US9481662B2, “Seriniquinones, melanoma-specific anticancer agents” (The Regents of the University of California, priority 2012, dated 2016).

In assay [1] the test system is HCT-116 cells. The assay is described as follows: Cell cycle and DNA fragmentation analysis (FACS / ImageStream). Type of assay: cell-based, human. The method, then: Cell cycle was analyzed by the ImageStream® cell analysis system (Amnis). Briefly, HCT-116 cells (1×10^5 cells/mL) were seeded in 24-well plates, and 24 h later, 0.3 μM 1, 3 μM 1, 30 μM 1 or 17 μM etoposide (positive control) or 1% DMSO (negative control) was added to the cultures. After 18 h or 24 h incubation, cells were recovered by treatment with 0.05% trypsin-EDTA solution (GIBCO-BRL). An 100 μL aliquot of these cells were incubated for 30 min in the dark with a hypotonic solution containing 50 μg/mL propidium iodide, 0.1% sodium citrate, and 0.1% Triton X-100. Fluorescence was measured and DNA fragmentation and cell cycle were analyzed using ModFit LT for Win32 version 3.1.

A further assay concerns NCI-60 cell line. The assay can be described thus: NCI-60 cell line screen. Type of assay: cell-based. Particulars: Homo sapiens; mean over NCI-60 panel. The method, then:
(§1) This was further supported by the fact that 1 enhanced activity in melanoma cell lines with maximum activity against MALME-3M cells (GI50 value of 60 nM). With this in hand, chemical biological methods were applied to further probe this biological response.

Assay [2] concerns HCT-116 cells. The assay is described as follows: Western blot analysis of cell cycle, apoptotic and autophagy markers. The assay is classed as cell-based, human. The procedure:
HCT-116 cells (1×10^6 cells/mL) were seeded in 75 cm^2 cell culture flasks and, 24 h later, treated with 3 μM 1, 30 μM 1, 17 μM etoposide (positive control), or 0.3% DMSO (negative control). After 24 h incubation, cells were washed in PBS, harvested and lysed in RIPA buffer. Protein extracts were quantified by an adapted micro-method of the Lowry assay using the DC Protein Assay kit (BioRad Laboratories). Equal amounts of protein (30 μg) from each treatment were fractionated using SDS-PAGE 5-15% gel and transferred to a PVDF membrane (BioRad Laboratories). The membranes were incubated overnight at 4° C. with primary antibodies for caspase-3, cleaved caspase-3, caspase 7, cleaved caspase-7, caspase-9, cleaved caspase-9, PARP, cleaved PARP, cyclin A, cyclin B1, cyclin D1, cyclin D3, cyclin D3, cyclin E1, cyclin E2, LC3A, LC3B or dermcidin (Santa Cruz Biotech). β-actin (Abcam) was used to normalize protein loading. After washing with TBS containing 0.1% Tween-20, the membranes were incubated with the appropriate secondary antibody alkaline phosphatase conjugate (Cell Signaling Technology Inc.), followed by BCIP/NBT color development substrate (Perkin-Elmer).
Background: A western blot detects proteins with antibodies after separation by electrophoresis.

The subject of another assay is DCD-1L. The assay can be described thus: Covalent labeling of DCD-1L peptide (fluorescent band on SDS-PAGE). The assay is classed as binding, human. Particulars: 50 μM; for fluorescent labeling of DCD-1L fragment: PBS pH 7.2, 5% DMSO, 23° C., 24 h (FIG. 5E). From the text: FIGS. 5A-5E: Seriniquinone (1) targets dermcidin (DCD). […] Sequence listing (FIG. 5B): […] (SEQ ID NO:3); […] (SEQ ID NO:4).
The reactivity between 1 and DCD was then examined. […] These studies now provided initial support for the formation of a unique trimeric covalent adduct, compound 15, between 1, DCD and targeted proteins such as GADPH.

Assay [3] has as its system HCT-116 cells. The assay is described as follows: Cytotoxicity analysis (MTT/MTS) in HCT-116 colon carcinoma cells. The assay is classed as cell-based, human. Particulars: Homo sapiens. From the text: Fortunately, 1 was fluorescent with excitation maxima at 250 nm (ε=20,800 cm^−1M^−1), 289 nm (ε=24,000 cm^−1M^−1) and 342 nm (ε=6900 cm^−1M^−1) and a broad emission from 490-680 nm. Using confocal microscopy, red and green fluorescence from 1 appeared in HCT-116 cells within minutes of addition (FIG. 3A). […] Time course confocal imaging studies were then combined with conventional activity MTT assays^6 to provide a detailed correlation between cellular localization and cytostatic activity.
HCT-116 colon carcinoma cells were plated in 96-well plates at 2.5×10^4 cells/well. After 24 h, the cultures were treated with a single concentration seriniquinone (1) within the range of 0.02-20.0 μM, etoposide (positive control) in the range of 0.05-50 μM or 1% DMSO (negative control). The cells were incubated for either 24 h, 48 h or 72 h. At the end of the incubation period, cultures were added with 3-(4,5-dimethylthiazol-2-yl)-5-(3-carboxymethoxyphenyl)-2-(4-sulfophenyl)-2H-tetrazolium (MTS) for 3 h. Cell viability was quantified by the ability of living cells to reduce the yellow MTS dye to a purple formazan product. Time course experiments were also conducted in HCT-116 cells. Cells were exposed to 1 over short periods (1 h, 3 h, 6 h, and 9 h) followed by incubation in drug-free media to complete a total of 24 h incubation before addition of MTS.

For another assay, the system named is MALME-3M cells. The assay can be described thus: NCI-60 cell line screen, melanoma line MALME-3M. Type of assay: cell-based. Particulars: Homo sapiens, maximum activity in the panel. The procedure:
as §1

The next assay has as its system DNA. The assay can be described thus: In vitro DNA fragmentation assays. The assay is classed as biochemical.
The test system of assay [4] is HCT-116 cells. The assay is described as follows: Confocal microscopy subcellular localization. Type of assay: cell-based, human. Particulars: confocal imaging with counterstains. The method, then: Confocal studies were conducted on a LSM 710 inverted confocal microscope (Zeiss) with scanning module with 3 detection channels, Plan-Apochromat 63×/1.4 na objective, diode laser (405 nm, CW pulsed, 30 mW), Ar-laser (458 nm, 488 nm, 514 nm, 25 mW), HeNe-laser (543 nm, 1 mW) and HeNe-laser (633 nm, 5 mW). For all procedures, cells were seeded 24 h prior to treatment, to allow for adequate attachment to the well or flask bottom. Cells were plated in glass-bottom dishes (MatTek Corporation) for microscopic analyses at 1×10^5 cells/mL. Compounds were added to cells under 1 mL of media from […] such that the DMSO content remained under 0.1%. […]
Colocalization studies were conducted by treating cells (HCT-116 or MALME-3M) at a density of 1×10^5 cells/cm^2 in a 35 mm glass-bottom dish (MatTek Corporation). […] After 30 min, cells were washed PBS (4×1 mL) and immediately analyzed by confocal microscope. […] The localization of seriniquinone (1) was acquired by red fluorescence with emission at 550-631 nm, while the ER-tracker was acquired by blue florescence with emission at 406-450 nm. […] After 15 min, cells were washed PBS (4×1 mL) and immediately analyzed by confocal microscope. […] The localization of seriniquinone (1) was acquired by red fluorescence with emission at 550-631 nm, while the ER-tracker was acquired by blue florescence with emission at 415-530 nm.

The target in another assay is T1, dermcidin (DCD) (Homo sapiens, UniProt P81605).
T1 construct: endogenous in cells; host or cells: HCT-116 cell lysate
T1 sequence (P81605 20-110): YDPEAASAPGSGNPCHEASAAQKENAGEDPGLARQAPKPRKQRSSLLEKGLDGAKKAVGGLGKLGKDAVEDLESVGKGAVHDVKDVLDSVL
The assay can be described thus: Immunoprecipitation with IAF probe and LC-MS/MS target identification. Particulars: HCT-116 cell lysates, iodoacetamide treatment. The assay is classed as binding. The procedure:
Using established protocols,^13 HCT-116 cell lysates were treated for 8 h with probe 13 and immunoprecipitated with resins bearing a covalently-attached anti-IAF mAb.^14 Over multiple repetitions, a series of proteins ranging from 30-250 kDa were obtained in a manner dependent on the concentration probe 13 (FIG. 5A). […] Trypsin digestion coupled with LC-MS/MS analyses was then applied to identify the proteins in the more abundant bands. […] In addition to peptides from GADPH, peptides were also found in the 50 kDa band (b1, FIG. 5A) that corresponded to the 30 aa PIF core, 13 aa propeptide, and 47 aa DCD-1 peptide region of dermcidin (DCD) (FIG. 5B).
Interested if this was the case in this experimentation, the immunoprecipitated fractions were treated with 5 mM iodoacetamide prior to gel analysis. As indicated (Lane L1, FIG. 5C), a low molecular weight band corresponding to DCD appeared.
An 1 mg/mL stock of probe 14a/14b in DMSO solution was added to 1 mL of cell lysate containing ˜1 mg/mL in net protein to provide a net concentration of 3 μM 14a/14b or 30 μM 14a/14b. […]
Silver Stained bands were excised from the polyacrylamide gel and destained. […] General procedure was using in-gel trypsin digest and then the trypsin-digested peptides were analyzed by liquid chromatography LC-MS/MS with electrospray ionization. […]

Usually GI50 stands for the concentration at which growth is held to half of that of the control. By IC50 is commonly meant the concentration at which inhibition is half-maximal.

Read-outs that look alike come from different tables or passages of the source.

For the compound `O=c1c2ccccc2c(=O)c2c1sc1c(=O)c3ccccc3c(=O)c12` [Compound 1, dinaphtho[2,3-b:2′,3′-d]thiophene-5,7,12,13-tetraone], in the assay on HCT-116 cells [1], the “DNA fragmentation (cells with subdiploid DNA)” value is on record as “concentration dependent DNA fragmentation” and the “cell cycle phase of remaining cells” value was “S to G2 phase”. In the assay on NCI-60 cell line, this compound showed a GI50 of 910 nM and an LC50 (concentration giving 50% cell kill) of 18600 nM. In addition, the “cleavage of caspases and PARP” value in the assay with HCT-116 cells [2] (HCT-116 cells) was “induced cleavage of caspases 3, 7 and 9 PARP”. Further, the “induction of autophagy (LC3A/LC3B conversion, Western blot)” value with HCT-116 cells [2] (HCT-116 cells, 24 h) is listed as “induced autophagy”. For the same compound, the cyclin expression entry with HCT-116 cells [2] (HCT-116 treated cells) was “strong reduction in the expression of the cyclins D1, D2 and D3”. For the same compound, the “covalent labeling of DCD-1L” value in the assay with DCD-1L (37° C., 24 h) is reported as “covalently label DCD-1L”. Besides, the “fluorescent labeling of DCD-1L fragment” value in the assay on DCD-1L is listed as “fluorescent bands corresponding to DCD-1L”. In addition, in the assay on HCT-116 cells [3] (HCT-116, Table 1, read-out: HCT 116 IC50), the IC50 is 350 nM. For the same compound, the IC50 in the assay on HCT-116 cells [3] (HCT-116 cells treated over 24 h period, MTT assay, read-out: IC50) worked out at 640 ± 60 nM. The same compound registered a GI50 in the assay on MALME-3M cells of 60 nM. Besides, the “DNA fragmentation in vitro” value in the assay with DNA was “failed to induce DNA fragmentation”. In the assay with HCT-116 cells [4], the subcellular localization entry is “appeared soon after treatment in the ER”.
Regarding `CN(C)c1ccc2c(CC(=O)NCCCCCCNC(=O)CCc3ccc4c(=O)c5c(sc6c(=O)c7ccccc7c(=O)c65)c(=O)c4c3)cc(=O)oc2c1` [Probe 13, N-(6-(2-(7-(dimethylamino)-2-oxo-2H-chromen-4-yl)acetamido)hexyl)-3-(5,7,12,13-tetraoxo-5,7,12,13-tetrahydrodinaphtho[2,3-b:2′,3′-d]thiophen-3-yl)propanamide], the “fluorescent labeling of DCD-1L fragment” value in the assay on DCD-1L is recorded as “fluorescent bands corresponding to DCD-1L”. Moreover, the IC50 in the assay on HCT-116 cells [3] (HCT-116 cells, read-out: IC50) came to 250 ± 80 nM. The “protein target identified by immunoprecipitation” value on dermcidin (DCD) is “DCD was indeed a primary target”. Moreover, the subcellular localization result with HCT-116 cells [4] is recorded as “rapid uptake in the ER followed by transport into autophagosomes”.
